Source: patent US12581252B2, “Substituted pyrrolo[3,4-b]pyridines as PI3K-α inhibitors” (Relay Therapeutics, Inc., priority 2020, dated 2026)

molecular target: H1047R PIK3CA enzyme (Homo sapiens, UniProt P42336, H1047R); experiment: ADP-Glo Biochemical PIK3CA Kinase Assay
Sequence (P42336 whole entry H1047R): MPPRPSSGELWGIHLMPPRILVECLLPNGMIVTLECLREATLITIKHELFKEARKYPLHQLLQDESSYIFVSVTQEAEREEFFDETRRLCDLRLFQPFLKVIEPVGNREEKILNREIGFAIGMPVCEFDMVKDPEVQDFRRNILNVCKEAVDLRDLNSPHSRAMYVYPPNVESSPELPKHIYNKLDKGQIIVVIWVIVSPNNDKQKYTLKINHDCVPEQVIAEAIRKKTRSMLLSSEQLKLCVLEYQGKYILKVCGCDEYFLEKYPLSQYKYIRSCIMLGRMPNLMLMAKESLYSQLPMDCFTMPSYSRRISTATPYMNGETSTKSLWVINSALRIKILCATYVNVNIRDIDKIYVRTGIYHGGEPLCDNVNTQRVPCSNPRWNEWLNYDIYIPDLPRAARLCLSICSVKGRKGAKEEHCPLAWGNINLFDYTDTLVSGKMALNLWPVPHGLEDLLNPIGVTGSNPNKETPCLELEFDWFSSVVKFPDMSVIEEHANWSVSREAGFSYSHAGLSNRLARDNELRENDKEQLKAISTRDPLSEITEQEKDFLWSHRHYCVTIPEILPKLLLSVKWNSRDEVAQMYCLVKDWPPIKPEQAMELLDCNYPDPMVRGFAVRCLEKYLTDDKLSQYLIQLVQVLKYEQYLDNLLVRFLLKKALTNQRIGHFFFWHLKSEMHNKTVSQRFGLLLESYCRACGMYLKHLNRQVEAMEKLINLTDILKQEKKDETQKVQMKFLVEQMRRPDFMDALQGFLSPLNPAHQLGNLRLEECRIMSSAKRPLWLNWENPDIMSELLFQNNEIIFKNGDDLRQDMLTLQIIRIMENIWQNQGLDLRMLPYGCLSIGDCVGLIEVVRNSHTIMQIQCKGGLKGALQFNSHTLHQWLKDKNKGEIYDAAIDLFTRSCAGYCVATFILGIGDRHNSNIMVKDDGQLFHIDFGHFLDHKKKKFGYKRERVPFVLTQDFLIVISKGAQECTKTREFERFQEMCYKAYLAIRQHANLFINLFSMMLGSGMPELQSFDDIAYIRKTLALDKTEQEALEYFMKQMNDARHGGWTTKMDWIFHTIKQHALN
Sequence (P27986 whole entry partner): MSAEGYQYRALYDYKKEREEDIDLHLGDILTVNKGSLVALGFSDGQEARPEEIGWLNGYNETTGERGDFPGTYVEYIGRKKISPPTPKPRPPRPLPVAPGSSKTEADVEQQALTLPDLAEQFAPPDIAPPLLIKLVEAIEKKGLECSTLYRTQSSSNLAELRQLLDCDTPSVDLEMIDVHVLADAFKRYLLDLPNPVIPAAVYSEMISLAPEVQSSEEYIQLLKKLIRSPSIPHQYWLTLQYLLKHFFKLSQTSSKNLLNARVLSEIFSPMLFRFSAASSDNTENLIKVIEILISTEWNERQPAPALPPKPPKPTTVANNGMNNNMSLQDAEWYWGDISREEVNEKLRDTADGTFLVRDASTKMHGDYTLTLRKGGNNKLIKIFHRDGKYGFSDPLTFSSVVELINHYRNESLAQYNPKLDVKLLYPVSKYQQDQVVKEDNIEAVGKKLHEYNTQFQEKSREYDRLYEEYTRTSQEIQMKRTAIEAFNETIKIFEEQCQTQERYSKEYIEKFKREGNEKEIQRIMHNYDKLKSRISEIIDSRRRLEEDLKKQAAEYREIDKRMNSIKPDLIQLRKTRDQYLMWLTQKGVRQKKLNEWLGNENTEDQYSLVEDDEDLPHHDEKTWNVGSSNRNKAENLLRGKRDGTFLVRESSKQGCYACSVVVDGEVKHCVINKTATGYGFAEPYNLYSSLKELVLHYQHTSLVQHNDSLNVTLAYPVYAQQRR

First: Cc1ccccc1C1(C)NC(=O)c2cccc(NC(=O)c3csc4ccccc34)c21 (centres unmarked) [Compound I-80, N-(3-Methyl-1-oxo-3-(o-tolyl)isoindolin-4-yl)benzo[b]thiophene-3-carboxamide]
Second: Cc1ccccc1C1NC(=O)c2cc(C(O)CO)cc(NC(=O)c3csc4ccccc34)c21 (mixture of isomers) [Compound I-139, N-[6-(1,2-Dihydroxyethyl)-3-(2-methylphenyl)-1-oxo-2,3-dihydro-1H-isoindol-4-yl]-1-benzothiophene-3-carboxamide]
The IC50 of the first is higher: 10000 to 100000 nM for the first, at most 100 nM for the second. The second is the more potent here.

Compared with `O=C(Nc1cc(-c2ccc3ncnn3c2)cc2c1[C@@H](c1cc(F)ccc1Cl)NC2=O)c1cc(F)c(F)c(Cl)c1` (stereo in doubt) [Compound I-1174], `[2H]C1(c2cc(F)ccc2Cl)NC(=O)c2cc(-c3ccc4ncnn4c3)cc(NC(=O)c3cc(F)cc(C(F)(F)F)c3)c21` (centres unmarked) [Compound I-1413] is lower in IC50: 1000 to 10000 nM for the first, at most 100 nM for the second. The second is the more potent here.

First: O=C1NC(c2cc(F)ccc2Cl)c2c(Nc3nncc4ccccc34)cc(Br)cc21 (centres unmarked) [Compound I-760]
Second: O=C(Nc1cc(Br)cc2c1C(c1cc(F)ccc1Cl)NC2=O)c1nc2ccccc2[nH]1 (centres unmarked) [Compound I-1617]
The IC50 of the first is higher: 10000 to 100000 nM for the first, 1000 to 10000 nM for the second. The second is the more potent here.

`Nc1nn(C(=O)Nc2cccc3c2C(c2cc(F)ccc2Cl)NC3=O)c2ccc(F)cc12` (centres unmarked) [Compound I-2431] and `N[C@]1(C(F)(F)F)CN(C(=O)Nc2cccc3c2[C@H](c2cc(F)ccc2Cl)NC3=O)c2ccc(F)cc21` (single isomer, unassigned) [Compound I-2472] fall in the same range of IC50: 500 to 1000 nM for the first, 500 to 1000 nM for the second.

Compared with `C[C@@H](CCC(F)(F)F)C(=O)Nc1cccc2c1[C@H](c1cc(F)ccc1Cl)NC2=O` [Compound I-2138], `CC(C1CCN(C(=O)Nc2cccc3c2C(c2cc(F)ccc2Cl)NC3=O)C1)C(F)(F)F` (mixture of isomers) [Compound I-2421] is higher in IC50: 1000 to 10000 nM for the first, 10000 to 100000 nM for the second. The first is the more potent here.

`O=C1N[C@H](c2cc(F)ccc2Cl)c2c(NC(=O)N3C[C@H](O)C[C@@H]3CC(F)(F)F)cccc21` (racemic) [Compound I-2163] and `O=C1N[C@H](c2cc(F)ccc2Cl)c2c(NC(=O)N3C[C@H](O)C[C@@H](C(F)(F)F)C3)cccc21` (single isomer, unassigned) [Compound I-2236] fall in the same range of IC50: 10000 to 100000 nM for the first, 10000 to 100000 nM for the second.

`O=C(Nc1cc(CN2CCNCC2)cc2c1C(c1cc(F)ccc1Cl)NC2=O)c1cc(F)cc(C(F)(F)F)c1` (centres unmarked) [Compound I-350] and `O=C(Nc1cc(CN2CCn3cnnc3C2)cc2c1C(c1cc(F)ccc1Cl)NC2=O)c1cc(F)cc(C(F)(F)F)c1` (centres unmarked) [Compound I-1401] cannot be ordered by IC50: at most 100 nM for the first, at most 100 nM for the second.

`Cn1cc(-c2cc(NC(=O)c3cc(F)cc(C(F)(F)F)c3)c3c(c2)C(=O)NC3c2cc(F)ccc2Cl)nn1` (centres unmarked) [Compound I-879] and `Nc1nnc2ccc(-c3cc(NC(=O)c4cc(F)cc(C(F)(F)F)c4)c4c(c3)C(=O)NC4c3cc(F)ccc3Cl)cn12` (centres unmarked) [Compound I-1373] cannot be ordered by IC50: at most 100 nM for the first, at most 100 nM for the second.

First: O=C(Nc1cc(Br)cc2c1C(c1cc(F)ccc1Cl)NC2=O)c1cc(Cl)c(Cl)s1 (centres unmarked) [Compound I-1384]
Second: O=C(Nc1cc(Br)cc2c1C(c1cc(F)ccc1Cl)NC2=O)c1cc(F)ccc1Cl (centres unmarked) [Compound I-791]
The IC50 of the first is lower: 500 to 1000 nM for the first, 10000 to 100000 nM for the second. The first is the more potent here.

First: O=C1N[C@@H](c2cc(F)ccc2Cl)c2c(Nc3cn[nH]c3)cc(Br)cc21 [Compound I-2184]
Second: Cc1cccc(C(=O)Nc2cc(Br)cc3c2C(c2cc(F)ccc2Cl)NC3=O)c1 (centres unmarked) [Compound I-520]
The IC50 of the first is higher: 10000 to 100000 nM for the first, 1000 to 10000 nM for the second.

`O=C1NC(c2cc(F)ccc2Cl)c2c(NC(=O)N3CCC(C(F)(F)F)C3)cc(-c3ccc4ncnn4c3)cc21` (centres unmarked) [Compound I-1903] and `O=C1NC(c2cc(F)ccc2Cl)c2c(NC(=O)N3C[C@H](O)[C@@H](C(F)(F)F)C3)cc(-c3ccc4ncnn4c3)cc21` (single isomer, unassigned) [Compound I-1902] fall in the same range of IC50: 1000 to 10000 nM for the first, 1000 to 10000 nM for the second.

`O=C(Nc1cc(N2CCS(=O)(=O)CC2)cc2c1C(c1cc(F)ccc1Cl)NC2=O)c1cc(F)cc(C(F)(F)F)c1` (centres unmarked) [Compound I-1248] and `O=C(Nc1cc(N[C@@H]2CC[C@H]2O)cc2c1C(c1cc(F)ccc1Cl)NC2=O)c1cc(F)cc(C(F)(F)F)c1` (mixture of isomers) [Compound I-721] cannot be ordered by IC50: at most 100 nM for the first, at most 100 nM for the second.

`O=C(Nc1cccc2c1C(c1cc(F)ccc1Cl)NC2=O)c1cc(C(F)(F)F)cc(Cl)n1` (centres unmarked) [Compound I-724] and `O=C(Nc1cccc2c1[C@@H](c1cc(F)ccc1Cl)NC2=O)c1cc(F)cc(C(F)(F)F)c1` [Compound I-860] fall in the same range of IC50: 1000 to 10000 nM for the first, 1000 to 10000 nM for the second.

`O=C(Nc1cc(-c2ccc3cc[nH]c3c2)cc2c1C(c1cc(F)ccc1Cl)NC2=O)c1cc(F)cc(C(F)(F)F)c1` (centres unmarked) [Compound I-855] and `Nc1cn2cc(-c3cc(NC(=O)c4cc(F)cc(C(F)(F)F)c4)c4c(c3)C(=O)NC4c3cc(F)ccc3Cl)ccc2n1` (centres unmarked) [Compound I-1411] cannot be ordered by IC50: 100 to 500 nM for the first, at most 100 nM for the second.

First: O=C(Nc1cc(Br)cc2c1C(c1cc(F)ccc1Cl)NC2=O)c1cc(F)cc(COC(F)F)c1 (centres unmarked) [Compound I-1285]
Second: CN(C)C(=O)OCc1cc(NC(=O)c2cc(F)cc(C(F)(F)F)c2)c2c(c1)C(=O)NC2c1cc(F)ccc1Cl (centres unmarked) [Compound I-1532]
The IC50 of the first is higher: 10000 to 100000 nM for the first, at most 100 nM for the second. The second is the more potent here.

Compared with `Cc1ccccc1C1NC(=O)c2cc(Br)cc(NC(=O)c3cc(F)cc(C4CC4)c3)c21` (centres unmarked) [Compound I-534], `O=C(CC1CCc2ccccc21)Nc1cc(Br)cc2c1C(c1cc(F)ccc1Cl)NC2=O` (centres unmarked) [Compound I-599] is higher in IC50: 1000 to 10000 nM for the first, 10000 to 100000 nM for the second.

Compared with `N#CC1CN(c2cc(NC(=O)c3cc(F)cc(C(F)(F)F)c3)c3c(n2)C(=O)NC3c2cc(F)ccc2Cl)C1` (centres unmarked) [Compound I-443], `C[C@](O)(CC#N)c1cc(NC(=O)c2cc(F)cc(C(F)(F)F)c2)c2c(c1)C(=O)N[C@@H]2c1cc(F)ccc1Cl` (single isomer, unassigned) [Compound I-1396] is higher in IC50: at most 100 nM for the first, 1000 to 10000 nM for the second.

`O=C1CCC[C@H]([C@@H]2NC(=O)c3cccc(NC(=O)c4cc(F)cc(C(F)(F)F)c4)c32)C1` (single isomer, unassigned) [Compound I-2254] and `O=C(Nc1cccc2c1[C@@H](C1CCCCC1)NC2=O)c1cc(F)cc(C(F)(F)F)c1` [Compound I-2053] fall in the same range of IC50: 10000 to 100000 nM for the first, 10000 to 100000 nM for the second.

`O=C(Nc1cc(Br)cc2c1C(c1cc(F)ccc1Cl)NC2=O)c1ccc2nncn2c1` (centres unmarked) [Compound I-637] and `Cc1cccc(C2(C(=O)Nc3cc(Br)cc4c3C(c3cc(F)ccc3Cl)NC4=O)CCCC2)c1` (centres unmarked) [Compound I-1639] fall in the same range of IC50: 10000 to 100000 nM for the first, 10000 to 100000 nM for the second.

`O=C(Nc1cccc2c1C(c1cc(F)ccc1Cl)NC2=O)c1coc2c1COC2` (centres unmarked) [Compound I-2265] and `O=C1N[C@@H](c2cc(F)ccc2Cl)c2c(NC(=O)N3C[C@@H](O)c4cccc(F)c43)cccc21` (single isomer, unassigned) [Compound I-2210] fall in the same range of IC50: 10000 to 100000 nM for the first, 10000 to 100000 nM for the second.

First: N#Cc1cc(NC(=O)N2C[C@@](O)(C(F)(F)F)c3ccccc32)c2c(c1)C(=O)N[C@H]2c1cc(F)ccc1Cl (single isomer, unassigned) [Compound I-2563]
Second: O=C1NC(c2cc(F)ccc2Cl)c2c(NC(=O)C3CCCC(C(F)(F)F)C3)cc(-c3ccc4ncnn4c3)cc21 (mixture of isomers) [Compound I-1816]
The IC50 of the first is higher: 1000 to 10000 nM for the first, at most 100 nM for the second. The second is the more potent here.

First: C=CCCCOc1cc(NC(=O)c2cc(F)cc(C(F)(F)F)c2)c2c(c1)C(=O)NC2c1cc(F)ccc1Cl (centres unmarked) [Compound I-1234]
Second: CN1CC(COc2cc(NC(=O)c3cc(F)cc(C(F)(F)F)c3)c3c(c2)C(=O)NC3c2cc(F)ccc2Cl)CC1=O (mixture of isomers) [Compound I-1348]
The IC50 of the first is higher: 500 to 1000 nM for the first, at most 100 nM for the second.

`Cn1nccc1Nc1cc(NC(=O)c2cc(F)cc(C(F)(F)F)c2)c2c(c1)C(=O)N[C@H]2c1cc(F)ccc1Cl` [Compound I-1144] and `CO[C@@H]1CC[C@H]1Nc1cc(NC(=O)c2cc(F)cc(C(F)(F)F)c2)c2c(c1)C(=O)NC2c1cc(F)ccc1Cl` (mixture of isomers) [Compound I-780] cannot be ordered by IC50: at most 100 nM for the first, at most 100 nM for the second.

`N#Cc1cnn2ccc(-c3cc(NC(=O)c4cc(F)cc(C(F)(F)F)c4)c4c(c3)C(=O)NC4c3cc(F)ccc3Cl)cc12` (centres unmarked) [Compound I-1762] and `O=C(Nc1cc(-c2cc(F)c3ncnn3c2)cc2c1[C@H](c1cc(F)ccc1Cl)NC2=O)c1cc(F)cc(C(F)(F)F)c1` [Compound I-1704] cannot be ordered by IC50: at most 100 nM for the first, at most 100 nM for the second.

Compared with `O=C(Nc1cc(-c2ccc3ncnn3c2)c(Cl)c2c1C(c1cc(F)ccc1Cl)NC2=O)c1cc(F)cc(C(F)(F)F)c1` (centres unmarked) [Compound I-1667], `CC(C)n1cc(-c2cc(NC(=O)c3cc(F)cc(C(F)(F)F)c3)c3c(c2)C(=O)N[C@@H]3c2cc(F)ccc2Cl)ccc1=O` [Compound I-742] is higher in IC50: at most 100 nM for the first, 1000 to 10000 nM for the second. The first is the more potent here.

Compared with `O=C(Nc1cc(Br)cc2c1[C@@H](c1cc(F)c(F)cc1Cl)NC2=O)c1cc(F)cc(C(F)(F)F)c1` [Compound I-676], `O=C(Nc1cccc2c1C(c1cc(Cl)cc(F)c1F)NC2=O)c1cc(F)cc(C(F)(F)F)c1` (centres unmarked) [Compound I-401] is lower in IC50: 1000 to 10000 nM for the first, 100 to 500 nM for the second.

First: Cn1ncc(C2NC(=O)c3cccc(NC(=O)c4nsc5ccccc45)c32)c1C(F)(F)F (centres unmarked) [Compound I-85]
Second: COC(=O)c1cc(NC(=O)c2nsc3ccccc23)c2c(c1)C(=O)NC2c1ccccc1C (centres unmarked) [Compound I-314]
The IC50 of the first is higher: 1000 to 10000 nM for the first, 500 to 1000 nM for the second.

First: O=C1NC(c2cc(F)ccc2Cl)c2c(COc3cc4ccccc4cn3)cc(-c3ccc4ncnn4c3)cc21 (centres unmarked) [Compound I-1981]
Second: NS(=O)(=O)c1cc(-c2ccc3ncnn3c2)cc2c1C(c1cc(F)ccc1Cl)NC2=O (centres unmarked) [Compound I-1970]
The IC50 of the first is lower: 1000 to 10000 nM for the first, 10000 to 100000 nM for the second. The first is the more potent here.

`CC(C)(O)c1cc(NC(=O)c2cc(F)cc(C(F)(F)F)c2)c2c(c1)C(=O)NC2c1cc(F)ccc1C(F)F` (centres unmarked) [Compound I-239] and `CNC(=O)c1ncc(-c2cc(NC(=O)c3cc(F)cc(C(F)(F)F)c3)c3c(c2)C(=O)NC3c2cc(F)ccc2Cl)cn1` (centres unmarked) [Compound I-1506] cannot be ordered by IC50: at most 100 nM for the first, 100 to 500 nM for the second.

First: O=C(Nc1cc(-c2ccc3ncnn3c2)nc2c1C(C1CCOCC1)NC2=O)c1cc(F)cc(C(F)(F)F)c1 (centres unmarked) [Compound I-1705]
Second: Cc1cc2nccnc2cc1-c1cc(NC(=O)c2cc(F)cc(C(F)(F)F)c2)c2c(c1)C(=O)NC2c1cc(F)ccc1Cl (centres unmarked) [Compound I-975]
The IC50 of the first is higher: 10000 to 100000 nM for the first, 100 to 500 nM for the second.

Compared with `Cc1ccccc1C1NCc2cccc(NC(=O)c3nsc4ccccc34)c21` (centres unmarked) [Compound I-201], `Cc1ncc(-c2cc(NC(=O)c3cc(F)cc(Cl)c3)c3c(c2)C(=O)NC3c2cc(F)ccc2Cl)cn1` (centres unmarked) [Compound I-849] is lower in IC50: 1000 to 10000 nM for the first, at most 100 nM for the second.
